# Data published in patent US20180057505A1, “BICYCLIC HETEROARYL COMPOUNDS USEFUL AS INHIBITORS OF THE PAR-2 SIGNALING PATHWAY” (VERTEX PHARMACEUTICALS INCORPORATED, priority 2015, published 2018).
# Columns and labels:
# Type in all cases: cell-based
# [1] = test system: Thrombin-stimulated Ca2+ response in HT-29 cells; assay: Ca FLIPR TETRA assay, ANTAGONIST mode, activator 1 U/mL Thrombin; settings: HT-29 cells, activator 1 U/mL Thrombin
# Method in brief: (§1)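 Inhibition of agonist-evoked calcium signals was measured in human HT-29 colon cells cultured overnight in 1% FBS McCoy's medium. Test compounds preincubated 30 min at r.t.; activators at final concentrations as stated for each readout.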
# PAR2 (HT-29 cells) [2] = target: T1, PAR2 (HT-29 cells) (Homo sapiens, UniProt P55085); assay: Ca FLIPR TETRA assay, ANTAGONIST mode, activator 8 μM SLIGKV; settings: HT-29 cells, activator 8 μM SLIGKV
# T1 construct: host or cells: HT-29
# T1 sequence (P55085 26-397): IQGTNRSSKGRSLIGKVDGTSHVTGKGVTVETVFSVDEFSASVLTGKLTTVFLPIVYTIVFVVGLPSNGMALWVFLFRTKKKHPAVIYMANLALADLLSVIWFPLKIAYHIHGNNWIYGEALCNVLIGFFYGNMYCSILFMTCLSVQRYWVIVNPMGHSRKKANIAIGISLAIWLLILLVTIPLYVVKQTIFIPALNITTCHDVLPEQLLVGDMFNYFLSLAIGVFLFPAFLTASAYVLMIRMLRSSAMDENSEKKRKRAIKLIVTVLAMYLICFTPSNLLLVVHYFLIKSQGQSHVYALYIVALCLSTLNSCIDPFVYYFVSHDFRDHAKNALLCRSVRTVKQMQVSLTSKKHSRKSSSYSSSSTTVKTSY
# Method in brief: as §1
# [3] = test system: UTP-stimulated Ca2+ response in HT-29 cells; assay: Ca FLIPR TETRA assay, ANTAGONIST mode, activator 0.6 μM UTP; settings: for IC50: HT-29 cells, activator 0.6 μM UTP
# Method in brief: as §1
# PAR2 (HT-29 cells) [4] = target: T1, PAR2 (HT-29 cells); assay: Ca FLIPR TETRA assay, ANTAGONIST mode, activator 3.1 U/mL trypsin; settings: HT-29 cells, activator 3.1 U/mL trypsin
# Method in brief: as §1
# [5] = maximal antagonist concentration per Method (A: 0.1, 1 or 2 μM; B: 50 μM)
# [6] = Method A: maximal concentration of antagonist 0.1, 1 or 2 μM
SMILES,IC50 ([1]; Homo sapiens) [nM],IC50 (PAR2 (HT-29 cells) [2]; [5]) [nM],IC50 ([3]; Homo sapiens) [nM],IC50 (PAR2 (HT-29 cells) [4]; [5]) [nM],IC50 (PAR2 (HT-29 cells) [2]; [6]) [nM],IC50 (PAR2 (HT-29 cells) [4]; [6]) [nM],IC50 [1] [nM],IC50 [3] [nM],"inhibition at 50 µM ([3]; Homo sapiens, HT-29, @ 50 (μM)) [%]"
CC(C)(C)c1cc(-c2ccc(C(F)(F)F)cc2)nc2cc(C(=O)N3CCN(C(=O)c4nnc[nH]4)CC3(C)C)oc12 [Example I-173],> 1000,4.8,> 1000,7.5,–,–,–,–,–
CC(C)c1cc(-c2ccc(F)cc2)nc2cc(C(=O)N3CCN(C(=O)C4(O)CCOCC4)CC3)oc12 [Example I-95],15000,10000,14000,8900,–,–,–,–,–
CC(C)c1cc(-c2ccc(F)cc2)nc2cc(C(=O)N3CCN(C(=O)[C@H](O)CC(C)(C)C)CC3)oc12 [Example I-94],6700,1200,–,620,–,–,–,–,74
CC1(c2cc(-c3ccc(F)cc3)nc3cc(C(=O)N4CCN(C(=O)C5CC5)CC4(C)C)oc23)CC1 [Example I-49],15000,5.9,18000,12,–,–,–,–,–
COCCN1CCN(C(=O)c2cc3nc(-c4ccc(F)cc4)cc(C(C)(C)C)c3o2)C(C)(C)C1=O [Example I-210],> 1500,2,> 1500,3,–,–,–,–,–
CC(C)(CC(=O)N1CCN(C(=O)c2cc3nc(-c4ccc(F)cc4)cc(C(C)(C)C)c3o2)C(C)(C)C1)C(=O)O [Example I-196],> 1000,0.7,> 1000,1,–,–,–,–,–
CC#CC(=O)N1CCN(C(=O)c2cc3nc(-c4ccc(F)cc4)cc(C(C)C)c3o2)C(C)(C)C1 [Example I-20],7100,11,1500,10,–,–,–,–,–
CC(C)(O)C(=O)N1CCN(C(=O)c2cc3nc(-c4ccc(F)cc4)cc(C4CC4)c3o2)C(C)(C)C1 [Example I-5],11000,120,8800,160,–,–,–,–,–
CC1(c2cc(-c3ccc(F)cc3)nc3cc(C(=O)N4CCNC(=O)C4(C)C)oc23)CC1 [Example I-25],4300,14,2700,18,–,–,–,–,–
CC(C)c1cc(-c2ccc(F)cc2)nc2cc(C(=O)N3CCN(C(=O)c4nnc[nH]4)CC3(C)C)oc12 [Example I-142],> 1000,7.2,> 1000,13,–,–,–,–,–
CN1CCN(C(=O)c2cc3nc(-c4ccc(F)cc4)cc(C(C)(C)C)c3o2)C(C)(C)C1=O [Example I-206],> 1000,4,> 1000,4,–,–,–,–,–
Cc1cc(-c2ccc(F)cc2)nc2cc(C(=O)N3CCN(C(=O)C(C)(C)O)CC3(C)C)oc12 [Example I-3],26000,710,18000,810,–,–,–,–,–
CC(C)(C)c1cc(-c2ccc(F)cc2)nc2cc(C(=O)N3CCN(S(=O)(=O)c4c[nH]cn4)CC3(C)C)oc12 [Example I-201],> 1000,4,> 1000,7,–,–,–,–,–
CC(C)c1cc(-c2ccc(F)cc2)nc2cc(C(=O)N3CCN(C(=O)c4ccn(C)n4)CC3(C)C)oc12 [Example I-141],> 1000,3.2,> 1000,4.2,–,–,–,–,–

# Further lines, with some results ahead:
IC50 ([1]; Homo sapiens) [nM],IC50 (PAR2 (HT-29 cells) [2]; [5]) [nM],IC50 ([3]; Homo sapiens) [nM],IC50 (PAR2 (HT-29 cells) [4]; [5]) [nM],IC50 (PAR2 (HT-29 cells) [2]; [6]) [nM],IC50 (PAR2 (HT-29 cells) [4]; [6]) [nM],IC50 [1] [nM],IC50 [3] [nM],SMILES,"inhibition at 50 µM ([3]; Homo sapiens, HT-29, @ 50 (μM)) [%]"
> 2000,33,> 2000,25,–,–,–,–,"CC(C)(C)c1cc(-c2ccc(Cl)c(F)c2)nc2cc(C(=O)N3CCN(c4cccnc4)CC3(C)C)oc12 [Example I-267, [7-tert-butyl-5-(4-chloro-3-fluoro-phenyl)furo[3,2-b]pyridin-2-yl]-[2,2-dimethyl-4-(3-pyridyl)piperazin-1-yl]methanone]",–
> 2000,1.4,> 2000,2.6,–,–,–,–,CC(C)(C)c1cc(-c2ccc(Cl)c(F)c2)nc2cc(C(=O)N3CCN(c4cc(C(=O)O)ccn4)CC3(C)C)oc12 [Example I-286],–
> 2000,4.9,> 2000,9.4,–,–,–,–,COC(=O)c1cccc(N2CCN(C(=O)c3cc4nc(-c5ccc(Cl)c(F)c5)cc(C(C)(C)C)c4o3)C(C)(C)C2)n1 [Example I-268],–
> 2000,7.3,> 2000,22,–,–,–,–,Cc1n[nH]c(C(=O)N2CCN(C(=O)c3cc4nc(C5CC6(CCC6)C5)cc(C(C)(C)C)c4o3)C(C)(C)C2)n1 [Example I-295],–
> 2000,76,> 2000,230,–,–,–,–,CNS(=O)(=O)CCC(=O)N1CCN(C(=O)c2cc3nc(C4CCC(F)(F)CC4)cc(C(C)(C)C)c3o2)C(C)(C)C1 [Example I-226],–
> 2000,–,> 2000,–,0.1,0.2,–,–,CC(C)[C@@H](CC(=O)N1CCN(C(=O)c2cc3nc(-c4ccc(Cl)cc4)cc(C(C)(C)C)c3o2)C(C)(C)C1)C(=O)O [Example I-320],–
> 2000,3.5,> 2000,7.1,–,–,–,–,CC(C)(C)c1cc(C2CC3(CCC3)C2)nc2cc(C(=O)N3CCN(C(=O)CCC(=O)O)CC3(C)C)oc12 [Example I-292],–
1600,7.5,1800,8.3,–,–,–,–,"CC(C)(C)c1cc(-c2ccc(Cl)cc2)nc2cc(C(=O)N3CCN(c4ccc(C(=O)O)cn4)C(=O)C3(C)C)oc12 [Example I-282, 6-[4-[7-tert-butyl-5-(4-chlorophenyl)furo[3,2-b]pyridine-2-carbonyl]-3,3-dimethyl-2-oxo-piperazin-1-yl]pyridine-3-carboxylic acid]",–
> 2000,–,> 2000,–,76,130,–,–,CC(C)(C)c1cc(N2CC3(C2)CC(F)(F)C3)nc2cc(C(=O)N3CCN(C(=O)[C@H]4C[C@](C)(O)C4)CC3(C)C)oc12 [Example I-441],–
> 2000,–,> 2000,–,2.5,3.3,–,–,Cc1ncc(N2CCN(C(=O)c3cc4nc(C5CCC(C)(C)CC5)cc(C(C)(C)C)c4o3)C(C)(C)C2)nc1C(=O)O [Example I-544],–
> 2000,–,1800,–,690,640,–,–,CC(C)(C)c1cc(-c2ccc(Cl)c(F)c2)nc2cc(C(=O)N3CCC(N)CC3(C)C)oc12 (centres unmarked) [Example I-548],–
> 2000,–,> 2000,–,16,22,–,–,CC(C)(C)c1cc(-c2ccc(Cl)cc2)nc2cc(C(=O)N3CCN(c4ccncc4)C(=O)C3(C)C)oc12 [Example I-328],–
> 2000,–,> 2000,–,320,420,–,–,CC(C)(C)c1cc(N2CCC(C#N)CC2)nc2cc(C(=O)N3CCN(C(=O)[C@H]4C[C@](C)(O)C4)CC3(C)C)oc12 [Example I-438],–
–,–,–,–,0.2,0.2,> 2000,> 2000,CC(C)(C)c1cc(-c2ccc(Cl)cc2)nc2cc(C(=O)N3CCN(c4nc(C(=O)O)ccc4F)CC3(C)C)oc12 [Example I-502],–
> 2000,–,> 2000,–,2.4,3.7,–,–,CC(C)(C)c1cc(-c2ccc(Cl)c(F)c2)nc2cc(C(=O)N3CCN(c4cnccn4)C(=O)C3(C)C)oc12 [Example I-360],–
> 2000,–,> 2000,–,260,260,–,–,CC(C)(C)c1cc(C2CC3(CCC3)C2)nc2cc(C(=O)N3CCN(C(=O)[C@H]4CNCCO4)CC3(C)C)oc12 [Example I-445],–
> 2000,–,> 2000,–,3.6,4.1,–,–,CC(C)[C@H](CC(=O)O)C(=O)N1CCN(C(=O)c2cc3nc(-c4ccc(Cl)c(F)c4)cc(C(C)(C)C)c3o2)C(C)(C)C1 [Example I-374],–
> 2000,–,> 2000,–,6.5,14,–,–,Cc1ccc(N2CCN(C(=O)c3cc4nc(C5CCC(C)(C)CC5)cc(C(C)(C)C)c4o3)C(C)(C)C2=O)nc1C(=O)O [Example I-488],–
–,–,–,–,0.3,0.5,> 1010,560,Cc1cc(C(=O)O)nc(N2CCN(C(=O)c3cc4nc(-c5ccc(Cl)c(F)c5)cc(C(C)(C)C)c4o3)C(C)(C)C2=O)n1 [Example I-409],–
> 2000,15,> 2000,51,–,–,–,–,Cc1n[nH]cc1N1CCN(C(=O)c2cc3nc(-c4ccc(F)cc4)cc(C(C)(C)C)c3o2)C(C)(C)C1=O [Example I-250],–
> 2000,–,> 2000,–,0.6,0.5,–,–,CC(C)(C)c1cc(-c2ccc(Cl)c(F)c2)nc2cc(C(=O)N3CCN(C(=O)NS(=O)(=O)c4ccccc4)CC3(C)C)oc12 [Example I-507],–
